According to patent US9957566B2, “Screening method” (THE UNIVERSITY OF BIRMINGHAM, priority 2009, dated 2018):

How the values were obtained:
peripheral lymphocytes [1] = assay: Lymphocyte culture with or without rapamycin, flow cytometry cell cycle analysis (TG1); assay type: cell-based, human; conditions: 100 ng/ml rapamycin, 24 hours
Procedure: (§1) Peripheral lymphocytes (thawed from storage as appropriate) were cultured in a growth medium of RPMI 1640 supplemented with 15% FCS (heat inactivated), plus 2% I-glutamine and 1% penicillin/streptamycin, in the presence of 2.5% phytohaemagglutinin (PHA) for 48 hours at 37° C., 5% CO2, to reach exponential growth. Cultures were prepared in a 96 well plate format, with 6 or 8 wells allocated to each patient (test subject). One single plate could therefore hold eleven sets of patient samples, plus one set of standard samples.
(§2) Once exponential growth of the cells was achieved, the lymphocyte cultures were treated with either growth medium (as above) alone, or the same growth medium plus 100 ng/ml rapamycin, in triplicate/quadruplicate for each patient.
(§3) Cell cultures were harvested after 24 hours. Samples intended for cytotoxicity testing (LDH assay) were frozen at −20° C., whereas samples intended for analysis by flow cytometry were fixed in 85% cold ethanol.
96-well plate lymphocytes cultures (with or without rapamycin) fixed in ethanol (end of step 3) were spun at 400 g for 10 minutes at RT with no breaks. Supernatants were removed and the cell pellets resuspended in 0.300 ml ice-cold PBS/well. The plates were spun again at 400 g for 10 minutes at RT with no breaks. Supernatants were again removed and the cell pellets re-suspended in 0.080 ml of propidium iodide (P1) staining solution/well.
The flow cytometer (FacsCalibur BD) was set up to distinguish well between the G1 and G2 peaks (at least 200 units apart).
Using as a Marker measure the PI reading equivalent to the G1 peak and the G2 peak the parameter X was calculated based on the relation: X=(G2peak−G1peak)/4
(§4) The LDH cytotoxicity assay gave a value for total cell numbers in each lymphocyte culture (with or without rapamycin). […]
[formula] fG1 is the proportion of cells in the G1 phase of the cell cycle as measured by flow cytometry.
Finally, TG1 values calculated for rapamycin treated and untreated lymphocyte cultures from the same test subject were compared.

peripheral lymphocytes [2] = assay: Lymphocyte culture with or without rapamycin, LDH cytotoxicity assay for number of cell divisions; assay type: cell-based, human; conditions: 100 ng/ml rapamycin, 24 hours
Procedure: as §1, §2, §3
Measurement of cell numbers in the cell cultures prepared in 3) was carried out by LDH cytotoxicity assay using the CytoTox 96® Non-Radioactive Cytotoxicity Assay Kit from Promega, according to the instructions supplied by the manufacturer.
The assays were set up in 96-well plate format, using 30 μl of lymphocyte culture and 50 μl of LDH substrate mix per well (substrate mix is a component of the CytoTox kit, diluted prior to use). Patient samples cultured with or without rapamycin were each tested in triplicate. The assay plates also included diluted standards of LDH positive control (serial dilutions of LDH positive control in lymphocyte culture medium; triplicate samples of 30 μl at each of 1:2500, 1:5000, 1:10,000, 1:20,000, 1:40,000, 1:80,000 and 1:160,000 dilution), to allow construction of a calibration curve.
The reactions were then stopped by adding 50 μl of cold Stop Solution (component of the CytoTox kit) to each well. Optical density was then read at 490 nm.
as §4

[3] = subjects with 0 ApoE4 alleles (n=54)
[4] = subjects with 1 ApoE4 allele (n=38)
[5] = subjects with 2 ApoE4 alleles (n=8)

CO[C@H]1C[C@@H]2CC[C@@H](C)[C@@](O)(O2)C(=O)C(=O)N2CCCC[C@H]2C(=O)O[C@H]([C@H](C)C[C@@H]2CC[C@@H](O)[C@H](OC)C2)CC(=O)[C@H](C)/C=C(\C)[C@@H](O)[C@@H](OC)C(=O)[C@H](C)C[C@H](C)/C=C/C=C/C=C/1C [Rapamycin, rapamycin]
TG1 Rapa = length of the G1 time under the effect of Rapamycin (mean) (peripheral lymphocytes [1]; [3]): 13.9944 | TG1 Rapa = length of the G1 time under the effect of Rapamycin (mean) (peripheral lymphocytes [1]; [4]): 13.7038 | TG1 Rapa = length of the G1 time under the effect of Rapamycin (mean) (peripheral lymphocytes [1]; [5]): 13.1059 | n rapa/n = change in the number of cell divisions under the effect of Rapamycin relative to control cultures from the same individual (mean) (peripheral lymphocytes [2]; [3]): 1.3044 | n rapa/n = change in the number of cell divisions under the effect of Rapamycin relative to control cultures from the same individual (mean) (peripheral lymphocytes [2]; [4]): 1.3775 | n rapa/n = change in the number of cell divisions under the effect of Rapamycin relative to control cultures from the same individual (mean) (peripheral lymphocytes [2]; [5]): 1.4624
